Experimental data from patent publication US8754073B2, “Substituted piperazino-dihydrothienopyrimidines” (Boehringer Ingelheim International GmbH, priority 2007, dated 2014).

What follows are compounds tested against PDE4B (Homo sapiens, UniProt Q07343) (assay: Scintillation Proximity Assay (SPA) of PDE4B enzyme activity ([H3]-cAMP cleavage)). Conditions: test substance 1 μM; one-hour incubation of [H3]-cAMP with PDE4B enzyme at 30° C.
Type: biochemical
How it was run: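 Percent inhibition at 1 μM compound, measured against an uninhibited reaction. PDE4B hydrolysed tritiated cAMP for one hour at 30 °C, then scintillator beads were added to capture [H3]-5′-AMP. Light events were counted after 45 min bead settling.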

Sequence of PDE4B (Q07343 whole entry, species assumed): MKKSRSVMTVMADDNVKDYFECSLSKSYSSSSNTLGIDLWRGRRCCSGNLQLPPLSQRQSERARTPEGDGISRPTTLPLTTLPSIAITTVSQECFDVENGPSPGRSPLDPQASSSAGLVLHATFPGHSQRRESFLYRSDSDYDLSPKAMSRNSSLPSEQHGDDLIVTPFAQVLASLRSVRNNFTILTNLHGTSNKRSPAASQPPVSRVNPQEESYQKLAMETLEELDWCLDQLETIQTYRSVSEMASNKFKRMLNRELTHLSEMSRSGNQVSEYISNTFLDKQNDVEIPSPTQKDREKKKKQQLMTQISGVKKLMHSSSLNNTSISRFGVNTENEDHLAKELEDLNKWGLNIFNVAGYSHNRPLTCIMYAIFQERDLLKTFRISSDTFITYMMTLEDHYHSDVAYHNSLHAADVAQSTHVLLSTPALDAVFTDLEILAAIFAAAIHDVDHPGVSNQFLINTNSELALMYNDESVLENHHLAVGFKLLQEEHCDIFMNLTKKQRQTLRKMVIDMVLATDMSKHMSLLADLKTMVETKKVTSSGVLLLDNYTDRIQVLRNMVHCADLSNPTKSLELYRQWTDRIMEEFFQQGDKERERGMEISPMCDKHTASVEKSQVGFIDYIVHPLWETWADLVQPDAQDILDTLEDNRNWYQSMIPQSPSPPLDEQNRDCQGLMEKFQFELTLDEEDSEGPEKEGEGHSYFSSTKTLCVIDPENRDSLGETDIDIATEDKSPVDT

Row | inhibition at 1 µM | SMILES
1 | 96% | [O-][S+]1CCc2nc(N3CCC(c4noc5ccc(F)cc45)CC3)nc(NC3CCOCC3)c21 (centres unmarked) [Example 122]
2 | 97% | CN1C[C@@H](Nc2nc(N3CCC(c4cccc(Cl)c4)CC3)nc3c2[S+]([O-])CC3)CCC1=O (some centres unmarked) [Example 54]
3 | 92% | [O-][S+]1CCc2nc(N3CCC(c4ccncc4)CC3)nc(NC3(CO)CC3)c21 (centres unmarked) [Example 34]
4 | 97% | CN1C[C@@H](Nc2nc(N3CCC(O)(c4cc(F)cc(F)c4)CC3)nc3c2[S+]([O-])CC3)CCC1=O (some centres unmarked) [Example 47]
5 | 95% | [O-][S+]1CCc2nc(N3CCC(c4noc5ccc(F)cc45)CC3)nc(NC3(CO)CC3)c21 (centres unmarked) [Example 106]
6 | 96% | [O-][S+]1CCc2nc(N3CCC(c4ccc5ccccc5c4)CC3)nc(NC3CCOCC3)c21 (centres unmarked) [Example 127]
7 | 94% | [O-][S+]1CCc2nc(N3CCC(c4nc(-c5cccnc5)no4)CC3)nc(NC3CCOCC3)c21 (centres unmarked) [Example 131]
8 | 96% | N#Cc1ccc(C2CCN(c3nc4c(c(NC5CCOCC5)n3)[S+]([O-])CC4)CC2)cc1 (centres unmarked) [Example 64]
9 | 95% | [O-][S+]1CCc2nc(N3CCC(c4nnc(-c5ccc(F)cc5)o4)CC3)nc(NC3(CO)CC3)c21 (centres unmarked) [Example 112]
10 | 92% | CC(C)[C@H](CO)Nc1nc(N2CCC(c3cccc(C#N)c3)CC2)nc2c1[S+]([O-])CC2 (some centres unmarked) [Example 154]
11 | 93% | [O-][S+]1CCc2nc(N3CCC(c4ccc(C(F)(F)F)cc4)CC3)nc(NC3(CO)CC3)c21 (centres unmarked) [Example 95, (1-{5-Oxo-2-[4-(4-Trifluoromethylphenyl)-Piperidin-1-Yl]-6,7-Dihydro-5H-5λ^4-Thieno[3,2-d]Pyrimidin-4-Ylamino}-Cyclopropyl)-Methanol]
12 | 96% | [O-][S+]1CCc2nc(N3CCC(c4c[nH]c5ccccc45)CC3)nc(NC3CCOCC3)c21 (centres unmarked) [Example 56]
13 | 96% | Cc1noc(C2CCN(c3nc4c(c(N[C@H]5CCC(=O)N(C)C5)n3)[S+]([O-])CC4)CC2)n1 (some centres unmarked) [Example 53]
14 | 83% | CC(C)[C@H](CO)Nc1nc(N2CCC(c3nnc4ccccn34)CC2)nc2c1[S+]([O-])CC2 (some centres unmarked) [Example 155]
15 | 96% | [O-][S+]1CCc2nc(N3CCC(c4nc5cc(Cl)ccc5s4)CC3)nc(NC3CCOCC3)c21 (centres unmarked) [Example 118]
16 | 87% | [O-][S+]1CCc2nc(N3CCC(c4c[nH]cn4)CC3)nc(NC3(CO)CC3)c21 (centres unmarked) [Example 27]
17 | 94% | N#Cc1cccc(C2CCN(c3nc4c(c(NC5(CO)CC5)n3)[S+]([O-])CC4)CC2)c1 (centres unmarked) [Example 107]

Same assay, conditions: test substance 1 μM; one-hour incubation with [H3]-cAMP at 30° C.

Row | inhibition at 1 µM | SMILES
18 | 94% | Cn1nc(C2CCN(c3nc4c(c(NC5CCOCC5)n3)[S+]([O-])CC4)CC2)cc1-c1ccco1 (centres unmarked) [Example 198, {2-[4-(5-furan-2-yl-1-methyl-1H-pyrazol-3-yl)-piperidin-1-yl]-5-oxo-6,7-dihydro-5H-5λ^4-thieno[3,2-d]pyrimidin-4-yl}-(tetrahydropyran-4-yl)-amine]
19 | 87% | Cc1nc(C2CCN(c3nc4c(c(NC5CCOCC5)n3)[S+]([O-])CC4)CC2)oc1-c1ccc(Cl)cc1 (centres unmarked) [Example 282]
20 | 95% | Cn1cc(C2CCN(c3nc4c(c(NC5CCOCC5)n3)[S+]([O-])CC4)CC2)c2cc(C(C)(C)C)ccc21 (centres unmarked) [Example 192, {2-[4-(5-tert-butyl-1-methyl-1H-indol-3-yl)-piperidin-1-yl]-5-oxo-6,7-dihydro-5H-5λ^4-thieno[3,2-d]pyrimidin-4-yl}-(tetrahydropyran-4-yl)-amine]
21 | 93% | N#Cc1ccc(OC2CCN(c3nc4c(c(NC5CCOCC5)n3)[S+]([O-])CC4)CC2)cc1 (centres unmarked) [Example 321]
22 | 94% | COC1(c2cc(F)cc(F)c2)CCN(c2nc3c(c(N[C@H]4CCC(=O)N(C)C4)n2)[S+]([O-])CC3)CC1 (some centres unmarked) [Example 273, 5-{2-[4-(3,5-difluorophenyl)-4-methoxypiperidin-1-yl]-5-oxo-6,7-dihydro-5H-5λ^4-thieno[3,2-d]pyrimidin-4-ylamino}-1-methylpiperidin-2-one]
23 | 68% | N[C@@H]1CC1Nc1nc(N2CCC(c3ccc(Cl)cc3)CC2)nc2c1[S+]([O-])CC2 (some centres unmarked) [Example 245, N-{2-[4-(4-Chlorophenyl)-Piperidin-1-Yl]-5-Oxo-6,7-Dihydro-5H-5λ^4-Thieno[3,2-d]Pyrimidin-4-Yl}-Cyclopropan-1,2-Diamine]
24 | 82% | O=C(N1CCc2ccc(OC3CCN(c4nc5c(c(NC6CCOCC6)n4)[S+]([O-])CC5)CC3)cc2CC1)C(F)(F)F (centres unmarked) [Example 182, 2,2,2-Trifluoro-1-(7-{1-[5-Oxo-4-(Tetrahydropyran-4-Ylamino)-6,7-Dihydro-5H-5λ^4-Thieno[3,2-d]Pyrimidin-2-Yl]-Piperidin-4-Yloxy}-1,2,4,5-Tetrahydrobenzo[d]Azepin-3-Yl)-Ethanone]
25 | 90% | O=C(c1ccc(F)cc1)C1(c2ccc(F)cc2)CCN(c2nc3c(c(Nc4cccc(F)c4)n2)[S+]([O-])CC3)CC1 (centres unmarked) [Example 299]
26 | 91% | COCC1(c2ccc(Cl)cc2)CCN(c2nc3c(c(NC4CCOCC4)n2)[S+]([O-])CC3)CC1 (centres unmarked) [Example 302]
27 | 96% | Cc1oc(C2CCN(c3nc4c(c(NC5(CO)CC5)n3)[S+]([O-])CC4)CC2)nc1-c1ccccc1 (centres unmarked) [Example 277]
28 | 95% | Cc1nn(C)cc1C(C)NC(=O)c1ccc(OC2CCN(c3nc4c(c(NC5CCOCC5)n3)[S+]([O-])CC4)CC2)cc1 (centres unmarked) [Example 244]
29 | 84% | NC1CC1Nc1nc(N2CCC(c3ccc(Cl)cc3)CC2)nc2c1[S+]([O-])CC2 (single isomer, unassigned) [Example 232, N-{2-[4-(4-Chlorophenyl)-Piperidin-1-Yl]-5-Oxo-6,7-Dihydro-5H-5λ^4-Thieno[3,2-d]Pyrimidin-4-Yl}-Cyclopropan-1,2-Diamine]
30 | 92% | CN1C[C@@H](Nc2nc(N3CCC(C(=O)N4CCOCC4)(c4ccccc4)CC3)nc3c2[S+]([O-])CC3)CCC1=O (some centres unmarked) [Example 252, 1-Methyl-5-{2-[4-(Morpholine-4-Carbonyl)-4-Phenyl Piperidin-1-Yl]-5-Oxo-6,7-Dihydro-5H-5λ^4-Thieno[3,2-d]Pyrimidin-4-Ylamino}-Piperidin-2-One]
31 | 92% | [O-][S+]1CCc2nc(N3CCC(COCc4ccccc4)(c4ccc(Cl)cc4)CC3)nc(NC3CCOCC3)c21 (centres unmarked) [Example 310]
32 | 93% | CN(C(=O)c1cccc(C2CCN(c3nc4c(c(NC5CCOCC5)n3)[S+]([O-])CC4)CC2)c1)C1CC1 (centres unmarked) [Example 249, N-cyclopropyl-N-methyl-3-{1-[5-oxo-4-(tetrahydropyran-4-ylamino)-6,7-dihydro-5H-5λ^4-thieno[3,2-d]pyrimidin-2-yl]-piperidin-4-yl}-benzamide]
33 | 89% | CC(C)(C)OC(=O)N[C@@H]1CC1Nc1nc(N2CCC(c3ccc(Cl)cc3)CC2)nc2c1[S+]([O-])CC2 (some centres unmarked) [Example 222, tert-butyl (2-{2-[4-(4-chlorophenyl)-piperidin-1-yl]-5-oxo-6,7-dihydro-5H-5λ^4-thieno[3,2-d]pyrimidin-4-ylamino}-cyclopropyl)-carbamidate]
34 | 94% | Cc1cn(C)nc1CN(C)C(=O)c1ccc(OC2CCN(c3nc4c(c(NC5CCOCC5)n3)[S+]([O-])CC4)CC2)cc1 (centres unmarked) [Example 239]
35 | 96% | [O-][S+]1CCc2nc(N3CCC(c4nc5ccc(Cl)cc5[nH]4)CC3)nc(NC3CCOCC3)c21 (centres unmarked) [Example 191]
